Consider five compounds from ChEMBL document CHEMBL1131705, “A highly stereoselective synthesis of plaunotol and its thiourea derivatives as potent antibacterial agents against Helicobacter pylori” (1999).

Converted amounts (≈) assume the structure as drawn.

As usually defined, the MIC is the lowest concentration that inhibits growth of the organism. Read a low MIC as a more susceptible organism.

Assay type in all cases: functional
In test [1] the test system is Helicobacter pylori. In words: In vitro antibacterial activity against Helicobacter pylori (NCTC 11637).
For test [2], the system named is Helicobacter pylori. In words: In vitro antibacterial activity against Helicobacter pylori (CPY 2052).
The test system of test [3] is Helicobacter pylori. In words: In vitro antibacterial activity against Helicobacter pylori (No. 7).
Test [4] concerns Helicobacter pylori. In words: Antibacterial activity against Helicobacter pylori (NCTC 11637).
Test [5] concerns Helicobacter pylori. In words: Antibacterial activity against Helicobacter pylori (No. 7).
Test [6] relates to Helicobacter pylori. In words: Antibacterial activity against Helicobacter pylori (CPY 2052).

`CC(C)=CCC/C(C)=C/CC/C(=C/CC/C(C)=C/C/N=C(\S)NCCc1ccccc1)C/N=C(\S)NCCc1ccccc1`: the MIC against Helicobacter pylori [1] came out at 6.25 µg/mL (≈ 9.9 µM); with Helicobacter pylori [2], 0.78 µg/mL (≈ 1.24 µM); against Helicobacter pylori [3] it was 6.25 µg/mL (≈ 9.9 µM).

For the compound `CC(C)=CCC/C(C)=C/CCC(=CCCC(C)=CCO)C/N=C(\S)NCCc1ccccc1`, the MIC in the test with Helicobacter pylori [1] came to 25 µg/mL (≈ 53.3 µM); with Helicobacter pylori [2], 1.56 µg/mL (≈ 3.33 µM); against Helicobacter pylori [3], 1.56 µg/mL (≈ 3.33 µM).

With `CC(C)=CCC/C(C)=C/CC/C(=C/CC/C(C)=C/C/N=C(\S)NCCc1ccccc1)CO`, the MIC against Helicobacter pylori [1], against Helicobacter pylori [2] and against Helicobacter pylori [3] was not above 0.1 µg/mL throughout.

`CC(C)=CCC/C(C)=C/CC/C(=C/CC/C(C)=C/CO)CO` [PLAUNOTOL]: the MIC against Helicobacter pylori [4] amounted to 12.5 µg/mL (≈ 40.8 µM); against Helicobacter pylori [5], 6.25 µg/mL (≈ 20.4 µM); in the test with Helicobacter pylori [6], 6.25 µg/mL (≈ 20.4 µM).

In the case of `CC1(C)S[C@@H]2[C@H](NC(=O)[C@H](N)c3ccc(O)cc3)C(=O)N2[C@H]1C(=O)O` [AMOXICILLIN], the MIC against Helicobacter pylori [1] was determined as 0.025 µg/mL (≈ 0.0684 µM); against Helicobacter pylori [2], 0.05 µg/mL (≈ 0.137 µM); in the test with Helicobacter pylori [3], 0.1 µg/mL (≈ 0.274 µM).
